Source: ChEMBL document CHEMBL2169878 (J Med Chem, 2012)
The source made the active and inactive calls. The rule behind the calls is not given here.

Assays:
[1] = target: Chloroquine resistance transporter (Plasmodium falciparum, UniProt Q9N623); test: Inhibition of chloroquine-resistant Plasmodium falciparum Dd2 CRT expressed in Xenopus laevis oocyte assessed as inhibition of [3H]chloroquine uptake measured from 1 to 2 hrs
[2] = target: T1, Chloroquine resistance transporter (Plasmodium falciparum) (UniProt Q9N623); test: Inhibition of chloroquine-resistant Plasmodium falciparum Dd2 CRT expressed in Xenopus laevis oocyte assessed as inhibition of [3H]chloroquine uptake at 100 uM measured from 1 to 2 hrs
T1 sequence (whole entry): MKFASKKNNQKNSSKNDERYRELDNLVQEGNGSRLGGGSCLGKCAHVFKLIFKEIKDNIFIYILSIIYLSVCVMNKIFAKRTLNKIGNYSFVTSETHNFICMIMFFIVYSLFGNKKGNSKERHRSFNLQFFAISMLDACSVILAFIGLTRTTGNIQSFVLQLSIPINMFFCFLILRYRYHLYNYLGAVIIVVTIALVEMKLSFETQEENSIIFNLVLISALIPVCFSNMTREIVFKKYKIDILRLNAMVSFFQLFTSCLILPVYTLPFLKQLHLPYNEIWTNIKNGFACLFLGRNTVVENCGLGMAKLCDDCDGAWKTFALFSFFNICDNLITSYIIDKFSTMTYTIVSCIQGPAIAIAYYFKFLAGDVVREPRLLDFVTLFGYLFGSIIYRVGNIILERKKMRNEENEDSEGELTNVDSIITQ

[3] = test system: Plasmodium falciparum; test: Antiplasmodial activity against chloroquine-sensitive Plasmodium falciparum NF54 infected in human erythrocytes assessed as inhibition of [3H]hypoxanthine incorporation incubated for 48 hrs prior to [3H]hypoxanthine addition measured after 48 hrs by liquid scintillation counting; format: functional, organism-based
[4] = test system: Plasmodium falciparum; test: Antiplasmodial activity against chloroquine-resistant Plasmodium falciparum K1 infected in human erythrocytes assessed as inhibition of [3H]hypoxanthine incorporation incubated for 48 hrs prior to [3H]hypoxanthine addition measured after 48 hrs by liquid scintillation counting; format: functional, organism-based
[5] = test system: Plasmodium falciparum; test: Antiplasmodial activity against chloroquine-resistant Plasmodium falciparum W2 infected in human RBC after 72 hrs by parasite lactate dehydrogenase assay; format: functional, organism-based; settings: W2, 72 h
[6] = test system: Plasmodium falciparum; test: Antiplasmodial activity against chloroquine-sensitive Plasmodium falciparum D10 infected in human RBC after 72 hrs by parasite lactate dehydrogenase assay; format: functional, organism-based; settings: D10, 72 h
[7] = test system: Salmonella typhimurium; test: Mutagenicity against Salmonella typhimurium TA100 assessed as revertants at 1.5 uM incubated for 90 mins followed by drug washout measured after 2 days relative to positive control; format: toxicity, organism-based; settings: salmonella enterica subsp. enterica serovar typhimurium, 1.5 h
[8] = test system: Salmonella typhimurium; test: Mutagenicity against Salmonella typhimurium TA100 assessed as revertants at 24 uM incubated for 90 mins followed by drug washout measured after 2 days relative to positive control; format: toxicity, organism-based; settings: salmonella enterica subsp. enterica serovar typhimurium
[9] = test system: Salmonella typhimurium; test: Mutagenicity against Salmonella typhimurium TA98 assessed as revertants at 1.5 uM incubated for 90 mins followed by drug washout measured after 2 days relative to positive control; format: toxicity, organism-based; settings: salmonella enterica subsp. enterica serovar typhimurium, 1.5 h
[10] = test system: Salmonella typhimurium; test: Mutagenicity against Salmonella typhimurium TA98 assessed as revertants at 6 uM incubated for 90 mins followed by drug washout measured after 2 days relative to positive control; format: toxicity, organism-based; settings: salmonella enterica subsp. enterica serovar typhimurium, 1.5 h
[11] = Cytotoxicity against human HepG2 cells after 24 hrs by neutral red dye uptake assay; format: cell-based; settings: read-out: TC50
[12] = test system: Salmonella typhimurium; test: Mutagenicity against Salmonella typhimurium TA98 assessed as revertants at 24 uM incubated for 90 mins followed by drug washout measured after 2 days relative to positive control; format: toxicity, organism-based; settings: salmonella enterica subsp. enterica serovar typhimurium, 1.5 h
[13] = test system: Salmonella typhimurium; test: Mutagenicity against Salmonella typhimurium TA100 assessed as revertants at 6 uM incubated for 90 mins followed by drug washout measured after 2 days relative to positive control; format: toxicity, organism-based; settings: salmonella enterica subsp. enterica serovar typhimurium, 1.5 h
[14] = test system: Salmonella typhimurium; test: Mutagenicity against Salmonella typhimurium TA98 assessed as revertants at 3 uM incubated for 90 mins followed by drug washout measured after 2 days relative to positive control; format: toxicity, organism-based; settings: salmonella enterica subsp. enterica serovar typhimurium, 1.5 h
[15] = test system: Salmonella typhimurium; test: Mutagenicity against Salmonella typhimurium TA100 assessed as revertants at 12 uM incubated for 90 mins followed by drug washout measured after 2 days relative to positive control; format: toxicity, organism-based; settings: salmonella enterica subsp. enterica serovar typhimurium
[16] = Cytotoxicity against mouse NIH3T3 cells after 24 hrs by neutral red dye uptake assay; format: cell-based; settings: read-out: TC50
[17] = test system: Salmonella typhimurium; test: Mutagenicity against Salmonella typhimurium TA98 assessed as revertants at 48 uM incubated for 90 mins followed by drug washout measured after 2 days relative to positive control; format: toxicity, organism-based; settings: salmonella enterica subsp. enterica serovar typhimurium, 1.5 h
[18] = test system: Salmonella typhimurium; test: Mutagenicity against Salmonella typhimurium TA100 assessed as revertants at 3 uM incubated for 90 mins followed by drug washout measured after 2 days relative to positive control; format: toxicity, organism-based; settings: salmonella enterica subsp. enterica serovar typhimurium, 1.5 h
[19] = test system: Salmonella typhimurium; test: Mutagenicity against Salmonella typhimurium TA100 assessed as revertants at 48 uM incubated for 90 mins followed by drug washout measured after 2 days relative to positive control; format: toxicity, organism-based; settings: salmonella enterica subsp. enterica serovar typhimurium
[20] = test system: Salmonella typhimurium; test: Mutagenicity against Salmonella typhimurium TA98 assessed as revertants at 12 uM incubated for 90 mins followed by drug washout measured after 2 days relative to positive control; format: toxicity, organism-based; settings: salmonella enterica subsp. enterica serovar typhimurium
[21] = test system: Plasmodium berghei; test: Antimalarial activity against Plasmodium berghei ANKA expressing GFP infected in mouse assessed as mean survival days at 100 mg/kg, po administered 24 hrs post-infection (reference value: 6 to 7 days); format: functional
[22] = test system: Salmonella typhimurium; test: Mutagenicity against Salmonella typhimurium TA98 assessed as revertants at 80 uM incubated for 90 mins followed by drug washout measured after 2 days relative to positive control; format: toxicity, organism-based; settings: salmonella enterica subsp. enterica serovar typhimurium, 1.5 h
[23] = test system: Salmonella typhimurium; test: Mutagenicity against Salmonella typhimurium TA100 assessed as revertants at 2 uM incubated for 90 mins followed by drug washout measured after 2 days relative to positive control; format: toxicity, organism-based; settings: salmonella enterica subsp. enterica serovar typhimurium
[24] = test system: Plasmodium berghei; test: Antimalarial activity against Plasmodium berghei ANKA expressing GFP infected in mouse assessed as reduction in parasitemia at 30 mg/kg, po administered 24 hrs post-infection measured 48 hrs post-dosing by flow cytometric analysis; format: functional; design: scale not given: the % may be the effect or the level left
[25] = test system: Salmonella typhimurium; test: Mutagenicity against Salmonella typhimurium TA98 assessed as revertants at 16 uM incubated for 90 mins followed by drug washout measured after 2 days relative to positive control; format: toxicity, organism-based; settings: salmonella enterica subsp. enterica serovar typhimurium
[26] = test system: Salmonella typhimurium; test: Mutagenicity against Salmonella typhimurium TA100 assessed as revertants at 80 uM incubated for 90 mins followed by drug washout measured after 2 days relative to positive control; format: toxicity, organism-based; settings: salmonella enterica subsp. enterica serovar typhimurium
[27] = test system: Plasmodium berghei; test: Antimalarial activity against Plasmodium berghei ANKA expressing GFP infected in mouse assessed as mean survival days at 30 mg/kg, po administered 24 hrs post-infection (reference value: 6 to 7 days); format: functional
[28] = test system: Salmonella typhimurium; test: Mutagenicity against Salmonella typhimurium TA98 assessed as revertants at 40 uM incubated for 90 mins followed by drug washout measured after 2 days relative to positive control; format: toxicity, organism-based; settings: salmonella enterica subsp. enterica serovar typhimurium
[29] = test system: Plasmodium berghei; test: Antimalarial activity against Plasmodium berghei ANKA expressing GFP infected in mouse assessed as cure from infection at 100 mg/kg, po administered 24 hrs post-infection measured on day 30; format: functional, organism-based; design: dose 100 mg/kg
[30] = test system: Salmonella typhimurium; test: Mutagenicity against Salmonella typhimurium TA100 assessed as revertants at 16 uM incubated for 90 mins followed by drug washout measured after 2 days relative to positive control; format: toxicity, organism-based; settings: salmonella enterica subsp. enterica serovar typhimurium
[31] = test system: Plasmodium berghei; test: Antimalarial activity against Plasmodium berghei ANKA expressing GFP infected in mouse assessed as cure from infection at 30 mg/kg, po administered 24 hrs post-infection measured on day 30; format: functional, organism-based; design: dose 30 mg/kg
[32] = test system: Salmonella typhimurium; test: Mutagenicity against Salmonella typhimurium TA98 assessed as revertants at 4 uM incubated for 90 mins followed by drug washout measured after 2 days relative to positive control; format: toxicity, organism-based; settings: salmonella enterica subsp. enterica serovar typhimurium
[33] = test system: Salmonella typhimurium; test: Mutagenicity against Salmonella typhimurium TA100 assessed as revertants at 40 uM incubated for 90 mins followed by drug washout measured after 2 days relative to positive control; format: toxicity, organism-based; settings: salmonella enterica subsp. enterica serovar typhimurium
[34] = test system: Plasmodium berghei; test: Antimalarial activity against Plasmodium berghei ANKA expressing GFP infected in mouse assessed as reduction in parasitemia at 100 mg/kg, po administered 24 hrs post-infection measured 48 hrs post-dosing by flow cytometric analysis; format: functional; design: scale not given: the % may be the effect or the level left
[35] = test system: Salmonella typhimurium; test: Mutagenicity against Salmonella typhimurium TA100 assessed as revertants at 4 uM incubated for 90 mins followed by drug washout measured after 2 days relative to positive control; format: toxicity, organism-based; settings: salmonella enterica subsp. enterica serovar typhimurium, 1.5 h
[36] = test system: Salmonella typhimurium; test: Mutagenicity against Salmonella typhimurium TA98 assessed as revertants at 2 uM incubated for 90 mins followed by drug washout measured after 2 days relative to positive control; format: toxicity, organism-based; settings: salmonella enterica subsp. enterica serovar typhimurium, 1.5 h

SMILES: CC(C)(C)NC(=O)[C@@H]1C[C@@H]2CCCC[C@@H]2CN1C[C@@H](O)[C@H](Cc1ccccc1)NC(=O)[C@H](CC(N)=O)NC(=O)c1ccc2ccccc2n1
- IC50 [1]: 13000 nM

SMILES: Clc1ccc(C(c2ccc(Cl)cc2)(c2ccc(CN3CCCC3)cc2)N2CCN(c3ccnc4cc(Cl)ccc34)CC2)cc1
- inhibition [2]: 42%
- IC50 [3]: 91 nM
- IC50 [4]: 92 nM
- IC50 [5]: 582 nM
- IC50 [6]: 277 nM

SMILES: COc1ccc(CCN(C)CCCC(C#N)(c2ccc(OC)c(OC)c2)C(C)C)cc1OC (stereo not drawn)
- inhibition [2]: 74%

SMILES: Clc1cccc(C(Nc2ccnc3cc(Cl)ccc23)c2ccc(CN3CCOCC3)c(Cl)c2)c1 (racemic)
- IC50 [3]: 47 nM
- IC50 [4]: 107 nM
- IC50 [5]: 277 nM
- IC50 [6]: 442 nM

SMILES: COc1ccc2nccc(NC(c3cccc(Cl)c3)c3ccc(CN4CCCC4)c(Cl)c3)c2c1 (racemic)
- Activity [7]: 3%
- Activity [8]: 5%
- Activity [9]: 3%
- IC50 [3]: 27 nM
- Activity [10]: 0%
- CC50 at 24 h [11]: 12000 nM
- Activity [12]: 3%
- IC50 [4]: 34 nM
- Activity [13]: 4%
- Activity [14]: 0%
- Activity [15]: 4%
- CC50 at 24 h [16]: 24000 nM
- IC50 [5]: 90 nM
- Activity [17]: 3%
- IC50 [6]: 56 nM
- Activity [18]: 4%
- Activity [19]: 10%
- Activity [20]: 3%

SMILES: COc1ccc2nccc(NC(c3cccc(Cl)c3)c3ccc(CN4CCCC4)c(F)c3)c2c1 (racemic)
- IC50 [5]: 101 nM
- IC50 [6]: 41 nM

SMILES: COc1ccc2nccc(NC(c3cccc(Cl)c3)c3ccc(CN4CCOCC4)c(Cl)c3)c2c1 (racemic)
- IC50 [3]: 81 nM
- IC50 [4]: 114 nM
- IC50 [5]: 229 nM
- IC50 [6]: 198 nM

SMILES: FC(F)(F)c1ccc2c(NC(c3cccc(Cl)c3)c3ccc(CN4CCCC4)c(Cl)c3)ccnc2c1 (racemic)
- IC50 [3]: 34 nM
- IC50 [4]: 46 nM
- IC50 [5]: 111 nM
- IC50 [6]: 74 nM

SMILES: Clc1ccc(C(Nc2ccnc3cc(Cl)ccc23)c2ccc(CN3CCCC3)c(Cl)c2)cc1 (racemic)
- Activity [8]: 4%
- inhibition [2]: 70%
- MSD [21]: 14 days
- Activity [22]: 0%
- Activity [23]: 4%
- Activity [24]: 99.4%
- Activity [25]: 3%
- Activity [26]: 1%
- CC50 at 24 h [11]: 4000 nM
- Activity [12]: 10%
- MSD [27]: 7.7 days
- Activity [28]: 10%
- Activity [29]: inactive
- Activity [30]: 1%
- Activity [31]: inactive
- Activity [32]: 0%
- Activity [33]: 8%
- Activity [34]: 99.5%
- CC50 at 24 h [16]: 16000 nM
- IC50 [5]: 28 nM
- Activity [35]: 3%
- IC50 [6]: 8.4 nM
- Activity [36]: 17%

SMILES: COc1ccc2nccc(NC(c3ccc(Cl)cc3)c3ccc(CN4CCCC4)c(Cl)c3)c2c1 (racemic)
- IC50 [5]: 76 nM
- IC50 [6]: 24 nM

SMILES: COc1ccc2nccc(NC(c3ccc(Cl)cc3)c3ccc(CN4CCCC4)c(F)c3)c2c1 (racemic)
- IC50 [3]: 25 nM
- IC50 [4]: 33 nM
- IC50 [5]: 69 nM
- IC50 [6]: 58 nM
